Some test systems named below: UACC-257; UACC-62; PC-3; HOP-62; M14; SF-539; K562; A549; RPMI-8226; DU-145; KM12; NCI-H522; MDA-MB-231; SF-295; MDA-N; 786-0; SNB-19; MOLT-4; Hs-578T; EKVX.
What all share (assay): growth of human tumour cells (NCI), 48 h

The structures appear in SMILES notation.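 Results reflect a 48-hour exposure of cells in 96-well plates to compound at five concentrations. Abbreviation: GI50, concentration required for 50% inhibition of growth.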 The source made the active and inactive calls. Rule as the data show it: active = GI50 up to about 1.1 µM and inactive = higher.

In the case of `COc1cc(OC)c2nccc(NCCCN(C)C)c2c1[N+](=O)[O-]`, the GI50 in the test on UACC-257 is 58.3 µM (inactive); in the test on UACC-62, > 100 µM (inactive); in the test with PC-3, > 100 µM (inactive); in the test with HOP-62, > 100 µM (inactive); in the test on M14, 27.3 µM (inactive); in the test on SF-539 it was 45.7 µM (inactive). In addition, the GI50 is 87.9 µM (inactive) with K562; > 100 µM (inactive) with A549; > 100 µM (inactive) in the test on RPMI-8226; > 100 µM (inactive) with DU-145; > 100 µM (inactive) with KM12; > 100 µM (inactive) in the test with NCI-H522. Also, the GI50 with MDA-MB-231, in the test on SF-295, in the test on MDA-N, in the test with 786-0, in the test on SNB-19 and in the test on MOLT-4 was > 100 µM (inactive) throughout. Moreover, the GI50 in the test with Hs-578T was > 100 µM (inactive).
Consider `O=[N+]([O-])c1ccc(NN/N=N/c2ccc(-c3nc4ccccc4[nH]3)cc2)c([N+](=O)[O-])c1`, for which the GI50 with UACC-257 is 76.7 µM (inactive); in the test on UACC-62, 4.06 µM (inactive); in the test on PC-3, 27.8 µM (inactive); with HOP-62, 42.6 µM (inactive); with EKVX it was 17.4 µM (inactive); in the test on M14, 23.1 µM (inactive). The GI50 is 40.9 µM (inactive) in the test on SF-539; 6.52 µM (inactive) in the test with K562; 58.3 µM (inactive) in the test with A549; 66.1 µM (inactive) with DU-145; 31.9 µM (inactive) in the test on KM12; 17.9 µM (inactive) in the test with NCI-H522. Further, the GI50 in the test on MDA-MB-231 is > 100 µM (inactive); with SF-295, 4.2 µM (inactive); in the test on MDA-N, 39.9 µM (inactive); with 786-0 it was 36.3 µM (inactive); in the test with SNB-19, > 100 µM (inactive); in the test on MOLT-4 it was 5.14 µM (inactive). Moreover, in the test with Hs-578T, the GI50 is 64.9 µM (inactive).
As for `COc1ccc(S(=O)(=O)Nc2ccc(-c3csc(N4C(=O)/C(=C/c5ccccc5)N=C4c4ccccc4)n3)cc2)cc1Cl`, the GI50 was 30.9 µM (inactive) with UACC-257; 16.8 µM (inactive) with UACC-62; 25.4 µM (inactive) in the test with PC-3; 36.4 µM (inactive) with HOP-62; 24.8 µM (inactive) with M14; 41.6 µM (inactive) in the test with SF-539. Besides, the GI50 in the test on K562 is 34.3 µM (inactive); with A549, 35.1 µM (inactive); in the test on DU-145 it was 27.8 µM (inactive); with KM12, 33.7 µM (inactive); in the test on NCI-H522, 39 µM (inactive); in the test with MDA-MB-231, 16.1 µM (inactive). In addition, the GI50 in the test with SF-295 was 41.7 µM (inactive); with MDA-N, 38.7 µM (inactive); in the test with 786-0 it was 46.5 µM (inactive); with SNB-19, 44.2 µM (inactive); with MOLT-4, 25.1 µM (inactive); in the test on Hs-578T, 37.5 µM (inactive).
Take `O=[N+]([O-])C(/C=C(\Cl)[N+](=O)[O-])=C(Nc1ccccc1)Nc1ccccc1`: the GI50 in the test with UACC-257 was 13.9 µM (inactive); in the test on UACC-62 it was 7.45 µM (inactive); with PC-3, 14.6 µM (inactive); in the test on EKVX, 13.5 µM (inactive); with M14, 9.84 µM (inactive); with SF-539, 11.2 µM (inactive). The GI50 with K562 was 2.94 µM (inactive); with A549, 17 µM (inactive); in the test on RPMI-8226 it was 2.28 µM (inactive); in the test on DU-145, 17.1 µM (inactive); in the test with KM12 it was 11.9 µM (inactive); in the test on NCI-H522, 2.21 µM (inactive). Besides, the GI50 was 10.7 µM (inactive) with MDA-MB-231; 17.3 µM (inactive) with SF-295; 5.58 µM (inactive) in the test on MDA-N; 3.7 µM (inactive) in the test on 786-0; 17.5 µM (inactive) in the test with SNB-19; 1.75 µM (inactive) in the test with MOLT-4. For the same compound, the GI50 with Hs-578T is 8.59 µM (inactive).
For `CC(=O)c1c(C)n(C)c2c1nnc1ccccc12`, the GI50 with UACC-257 is > 100 µM (inactive); in the test on UACC-62, 23.1 µM (inactive); with PC-3, 59.3 µM (inactive); in the test with HOP-62 it was 55.2 µM (inactive); with EKVX, 12.8 µM (inactive); in the test with M14, 67.8 µM (inactive). Further, the GI50 with SF-539 was 34.8 µM (inactive); in the test with A549, 32.2 µM (inactive); in the test with RPMI-8226 it was 38.6 µM (inactive); in the test with DU-145, 80.5 µM (inactive); with KM12 it was 47.6 µM (inactive); in the test with NCI-H522 it was > 100 µM (inactive). Besides, the GI50 in the test with MDA-MB-231 was 59 µM (inactive); with SF-295 it was 40.2 µM (inactive); in the test on MDA-N it was 67.9 µM (inactive); with 786-0 it was 36 µM (inactive); in the test with SNB-19, 55.5 µM (inactive); with Hs-578T, 32.6 µM (inactive).
For `CC1(C)S[C@@H]2[C@H](NC(=O)/C=C/c3ccccc3)C(=O)N2[C@H]1C(=O)O`, the GI50 in the test with UACC-257, in the test on UACC-62, in the test on PC-3, in the test on HOP-62, in the test with M14 and in the test with SF-539 was > 100 µM (inactive) each time. Also, the GI50 in the test with A549, in the test on RPMI-8226, in the test with DU-145, with KM12, in the test with NCI-H522 and in the test on MDA-MB-231 was > 100 µM (inactive) throughout. Further, the GI50 in the test on SF-295, in the test with MDA-N, in the test with 786-0, in the test on SNB-19, in the test on MOLT-4 and with Hs-578T was > 100 µM (inactive) throughout.
Turning to `CCOC(=O)C1=c2[nH]c3cccc4cccc(c43)n2C(=O)CC1c1ccccc1` (centres undefined), the GI50 in the test on UACC-257, with UACC-62, in the test on PC-3, with HOP-62, in the test on EKVX and with M14 was > 100 µM (inactive) in each case. For the same compound, the GI50 with K562, in the test on A549, in the test on RPMI-8226, in the test on DU-145, with KM12 and with NCI-H522 was > 100 µM (inactive) each time. Also, the GI50 with MDA-MB-231, in the test on SF-295, with MDA-N, in the test on 786-0, with SNB-19 and in the test with MOLT-4 was > 100 µM (inactive) in each case. Besides, the GI50 in the test with Hs-578T is > 100 µM (inactive).
As for `CCC[C@@H]1C(=O)N=C(N)N1C(=O)OCc1ccccc1`, the GI50 in the test with UACC-257, in the test with UACC-62, in the test with PC-3, in the test on HOP-62, in the test with EKVX and in the test with K562 was > 100 µM (inactive) each time. Further, the GI50 in the test with RPMI-8226, with DU-145, in the test with KM12, with NCI-H522, with MDA-MB-231 and in the test with SF-295 was > 100 µM (inactive) each time. Moreover, the GI50 with MDA-N, in the test on 786-0, in the test on SNB-19, with MOLT-4 and with Hs-578T was > 100 µM (inactive) throughout.
Turning to `CCCC(=O)N(C(=O)CCC)C1=C(Cl)C(=O)c2ccccc2C1=O`, the GI50 is 3.42 µM (inactive) in the test on UACC-257; 2.49 µM (inactive) in the test on UACC-62; 4.06 µM (inactive) in the test on PC-3; 11.9 µM (inactive) with HOP-62; 5.36 µM (inactive) in the test with EKVX; 6.62 µM (inactive) in the test with M14. Further, the GI50 with SF-539 was 3.62 µM (inactive); in the test on K562, 2.18 µM (inactive); in the test on A549, 6.73 µM (inactive); with DU-145, 14 µM (inactive); in the test with KM12, 3.49 µM (inactive); with NCI-H522, 0.611 µM (active). For the same compound, the GI50 in the test on MDA-MB-231 is 18.2 µM (inactive); in the test on SF-295, 15.8 µM (inactive); in the test with MDA-N, 7.45 µM (inactive); in the test with 786-0, 9.98 µM (inactive); in the test on SNB-19, 6.73 µM (inactive); in the test with MOLT-4, 3.25 µM (inactive). For the same compound, the GI50 with Hs-578T was 8.04 µM (inactive).
In the case of `COc1c(C)c(C/C=C(\C)CC/C=C(\C)CC/C=C(\C)CC/C=C(\C)CCC=C(C)C)c(OC)c(OC)c1OC`, the GI50 in the test on UACC-257 was 80.5 µM (inactive); with UACC-62, > 100 µM (inactive); in the test on PC-3, 52.8 µM (inactive); in the test on HOP-62, 15.6 µM (inactive); in the test on EKVX, 44.4 µM (inactive); with M14 it was 50.9 µM (inactive). Besides, the GI50 with SF-539 was > 100 µM (inactive); with K562, 24.4 µM (inactive); in the test on A549 it was 17.6 µM (inactive); in the test with DU-145 it was > 100 µM (inactive); with KM12, 14.7 µM (inactive); in the test with NCI-H522, 16 µM (inactive). The GI50 in the test with MDA-MB-231 was 28.3 µM (inactive); in the test with SF-295, 19.9 µM (inactive); with MDA-N, 31.4 µM (inactive); with 786-0, 16.9 µM (inactive); in the test on SNB-19, > 100 µM (inactive); in the test with MOLT-4 it was 40.6 µM (inactive). The GI50 in the test on Hs-578T is > 100 µM (inactive).
Take `CNC(=O)c1nn[nH]c1O`: the GI50 in the test with UACC-257, in the test with UACC-62, in the test on PC-3, in the test on HOP-62, in the test with EKVX and in the test with M14 was > 100 µM (inactive) in each case. The GI50 in the test on K562, in the test on A549, in the test with RPMI-8226, in the test with DU-145, in the test with KM12 and in the test with NCI-H522 was > 100 µM (inactive) each time. Further, the GI50 with MDA-MB-231, in the test with SF-295, with MDA-N, in the test on 786-0, in the test with SNB-19 and in the test on MOLT-4 was > 100 µM (inactive) throughout. Also, the GI50 in the test with Hs-578T was 98.4 µM (inactive).

For the origin of these results see ChEMBL document CHEMBL1201862, “PubChem BioAssay data set” (2004).
